Series [1] can be described thus: Compound was evaluated for the protonation constant by binding to DNA by intercalation in calf thymus. Type of series: ADME, Bos taurus. As to conditions: cattle.
A further series has as its system HeLa. Description: In vitro effective dose for its cytostatic activity against HeLa cells. Type of series: functional. As to conditions: Homo sapiens, read-out: ED50 (the source's name).

In brackets after ≈: the same amount, converted by molar mass.

In turn, `COCCCNc1nnc(NCCCOC)c2cc3ccccc3cc12` returned a pKa in series [1] of 8.3. Further, the EC50 with HeLa worked out at 10 µg/mL (≈ 28.2 µM). Turning to `COc1cc(NS(C)(=O)=O)ccc1Nc1c2ccccc2nc2ccccc12` [AMSACRINE], the pKa in series [1] stood at 7.4. In the case of `CN(C)CCCNc1nnc(NCCCN(C)C)c2cc3ccccc3cc12`, the pKa in series [1] amounted to 6.2. In addition, in the series with HeLa, the EC50 was 1.25 µg/mL (≈ 3.28 µM). Taken in the same sequence, the figures for `OCCCNc1nnc(NCCCO)c2cc3ccccc3cc12` were 8.3 and 25 µg/mL (≈ 76.6 µM).

For the origin of these results see ChEMBL document CHEMBL1125759, “A new ionizable chromophore of 1,4-bis(alkylamino)benzo[g]phthalazine which interacts with DNA by intercalation” (J Med Chem, 1991).
